# Source: patent US10710978B2, “STK4 inhibitors for treatment of hematologic malignancies” (Dana-Farber Cancer Institute, Inc., priority 2015, dated 2020)
# Where two headings read alike, the source gives them in different places.
# Tests used:
# Experiment in all cases: KiNativ assay
# Assay type in all cases: binding
# CDK7 = CDK7 (Homo sapiens (Human), UniProt P50613); conditions: H929 live cell
# Experimental: (§1) Biochemical IC50s of the compounds of the present disclosure against various kinases were measured in a KiNativ assay. Compounds were screened in duplicate at 10 μM in H929 live cell. IC50 was measured via Mass spectroscopy (MS).
# IKKa = IKKa (Homo sapiens (Human), UniProt O15111); conditions: H929 live cell
# Experimental: as §1
# LYN = LYN (Homo sapiens (Human), UniProt P07948); conditions: H929 live cell
# Experimental: as §1
# MLK3 = MLK3 (Homo sapiens (Human), UniProt Q16584); conditions: H929 live cell
# Experimental: as §1
# KSR1, KSR2 = conditions: H929 live cell
# Experimental: as §1
# PKR = PKR (Homo sapiens (Human), UniProt P19525); conditions: H929 live cell
# Experimental: as §1
# MLKL = MLKL (Homo sapiens (Human), UniProt Q8NB16); conditions: H929 live cell
# Experimental: as §1
# PKD2 = PKD2 (Homo sapiens (Human), UniProt Q9BZL6); conditions: H929 live cell
# Experimental: as §1
# NEK7 = NEK7 (Homo sapiens (Human), UniProt Q8TDX7); conditions: H929 live cell
# Experimental: as §1
# ABL, ARG = conditions: H929 live cell
# Experimental: as §1
# MAP2K1, MAP2K2 = conditions: 10 μM, H929 live cell
# Experimental: as §1
# SLK = SLK (Homo sapiens (Human), UniProt Q9H2G2); conditions: H929 live cell
# Experimental: as §1
# MAP3K2 = MAP3K2 (Homo sapiens (Human), UniProt Q9Y2U5); conditions: H929 live cell
# Experimental: as §1
# PI4KA, PI4KAP2 = conditions: H929 live cell
# Experimental: as §1
# RSK1 domain2 = RSK1 domain2 (Homo sapiens (Human), UniProt Q15418); conditions: H929 live cell
# Experimental: as §1
# AurB = AurB (Homo sapiens (Human), UniProt Q96GD4); conditions: H929 live cell
# Experimental: as §1
# p70S6Kb = p70S6Kb (Homo sapiens (Human), UniProt Q9UBS0); conditions: H929 live cell
# Experimental: as §1
# CDK11, CDK8 = conditions: H929 live cell
# Experimental: as §1
# MAP2K1 = MAP2K1 (Homo sapiens (Human), UniProt Q02750); conditions: H929 live cell
# Experimental: as §1
# AKT1 = AKT1 (Homo sapiens (Human), UniProt P31749); conditions: H929 live cell
# Experimental: as §1
# PKCi = PKCi (Homo sapiens (Human), UniProt P41743); conditions: H929 live cell
# Experimental: as §1
# MAST3 = MAST3 (Homo sapiens (Human), UniProt O60307); conditions: H929 live cell
# Experimental: as §1
# NuaK2 = NuaK2 (Homo sapiens (Human), UniProt Q9H093); conditions: H929 live cell
# Experimental: as §1
# p38a = p38a (Homo sapiens (Human), UniProt Q16539); conditions: H929 live cell, read-out: % inhibition (range)
# Experimental: as §1
# BRAF = BRAF (Homo sapiens (Human), UniProt P15056); conditions: H929 live cell
# Experimental: as §1
# IRAK4 = IRAK4 (Homo sapiens (Human), UniProt Q9NWZ3); conditions: H929 live cell
# Experimental: as §1
# MSK2 domain1 = MSK2 domain1 (Homo sapiens (Human), UniProt O75676); conditions: H929 live cell
# Experimental: as §1
# CK1g3 = CK1g3 (Homo sapiens (Human), UniProt Q9Y6M4); conditions: H929 live cell
# Experimental: as §1
# MAP3K1 = MAP3K1 (Homo sapiens (Human), UniProt Q13233); conditions: H929 live cell
# Experimental: as §1
# STLK6 = STLK6 (Homo sapiens (Human), UniProt Q9C0K7); conditions: H929 live cell
# Experimental: as §1
# AMPKa1, AMPKa2 = conditions: H929 live cell
# Experimental: as §1
# MST2 = MST2 (Homo sapiens (Human), UniProt Q13188); conditions: H929 live cell
# Experimental: as §1
# PAN3 = PAN3 (Homo sapiens (Human), UniProt Q58A45); conditions: H929 live cell
# Experimental: as §1
# GCN2 domain2 = GCN2 domain2 (Homo sapiens (Human), UniProt Q9P2K8); conditions: H929 live cell
# Experimental: as §1
# Sequence of CDK7 (P50613 whole entry): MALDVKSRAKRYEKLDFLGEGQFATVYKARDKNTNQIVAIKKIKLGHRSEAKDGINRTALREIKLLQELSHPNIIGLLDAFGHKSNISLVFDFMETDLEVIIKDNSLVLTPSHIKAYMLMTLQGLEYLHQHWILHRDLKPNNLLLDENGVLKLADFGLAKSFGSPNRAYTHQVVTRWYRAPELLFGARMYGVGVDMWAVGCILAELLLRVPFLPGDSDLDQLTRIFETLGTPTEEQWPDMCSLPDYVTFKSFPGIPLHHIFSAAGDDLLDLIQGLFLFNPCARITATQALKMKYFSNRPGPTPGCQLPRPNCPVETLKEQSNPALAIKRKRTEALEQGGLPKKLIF
# Sequence of CDK7 (P51946 whole entry partner): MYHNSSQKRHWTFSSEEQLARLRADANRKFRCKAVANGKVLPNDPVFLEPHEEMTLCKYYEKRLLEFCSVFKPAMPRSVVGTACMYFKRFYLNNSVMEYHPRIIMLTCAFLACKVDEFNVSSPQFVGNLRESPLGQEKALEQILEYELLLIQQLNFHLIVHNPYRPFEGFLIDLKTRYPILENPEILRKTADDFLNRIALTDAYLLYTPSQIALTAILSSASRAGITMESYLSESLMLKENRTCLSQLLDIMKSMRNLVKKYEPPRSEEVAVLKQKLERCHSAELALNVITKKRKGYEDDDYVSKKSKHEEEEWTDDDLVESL
# Sequence of CDK7 (P51948 whole entry partner): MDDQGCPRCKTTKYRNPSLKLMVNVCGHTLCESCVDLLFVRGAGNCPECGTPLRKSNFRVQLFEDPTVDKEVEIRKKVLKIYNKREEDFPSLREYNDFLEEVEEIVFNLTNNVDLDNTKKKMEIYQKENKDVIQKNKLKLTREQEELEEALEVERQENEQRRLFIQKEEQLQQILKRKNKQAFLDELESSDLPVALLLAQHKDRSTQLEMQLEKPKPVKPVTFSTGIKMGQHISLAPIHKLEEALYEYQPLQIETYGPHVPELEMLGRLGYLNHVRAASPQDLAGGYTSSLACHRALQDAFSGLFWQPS
# Sequence of MST2 (Q13188 whole entry): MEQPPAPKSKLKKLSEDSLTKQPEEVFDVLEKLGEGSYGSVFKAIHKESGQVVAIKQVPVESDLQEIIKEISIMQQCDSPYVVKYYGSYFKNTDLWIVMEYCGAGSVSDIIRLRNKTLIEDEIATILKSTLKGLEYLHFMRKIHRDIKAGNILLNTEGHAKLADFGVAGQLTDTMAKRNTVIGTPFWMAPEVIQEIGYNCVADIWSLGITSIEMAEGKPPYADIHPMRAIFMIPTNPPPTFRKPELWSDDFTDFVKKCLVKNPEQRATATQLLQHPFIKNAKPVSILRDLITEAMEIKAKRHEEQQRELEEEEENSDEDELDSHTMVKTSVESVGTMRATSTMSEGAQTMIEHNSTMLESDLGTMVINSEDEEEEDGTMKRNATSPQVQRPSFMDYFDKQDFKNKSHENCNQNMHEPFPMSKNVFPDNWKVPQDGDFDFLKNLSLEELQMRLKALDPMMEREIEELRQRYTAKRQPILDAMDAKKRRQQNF
# Sequence of CK1g3 (Q9Y6M4 whole entry): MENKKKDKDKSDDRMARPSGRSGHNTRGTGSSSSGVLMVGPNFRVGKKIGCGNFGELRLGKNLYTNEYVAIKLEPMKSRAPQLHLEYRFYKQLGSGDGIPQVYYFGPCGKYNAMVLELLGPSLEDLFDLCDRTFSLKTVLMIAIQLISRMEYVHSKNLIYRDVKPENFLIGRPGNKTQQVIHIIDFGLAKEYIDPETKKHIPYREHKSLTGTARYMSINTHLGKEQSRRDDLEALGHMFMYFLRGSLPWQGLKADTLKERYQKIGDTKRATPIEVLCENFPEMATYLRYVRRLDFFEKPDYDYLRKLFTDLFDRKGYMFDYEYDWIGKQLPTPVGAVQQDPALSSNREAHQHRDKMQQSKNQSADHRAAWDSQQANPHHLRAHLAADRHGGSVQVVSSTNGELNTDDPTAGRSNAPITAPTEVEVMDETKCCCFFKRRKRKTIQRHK
# Sequence of GCN2 domain2 (Q9P2K8 whole entry, the tested form may be a part): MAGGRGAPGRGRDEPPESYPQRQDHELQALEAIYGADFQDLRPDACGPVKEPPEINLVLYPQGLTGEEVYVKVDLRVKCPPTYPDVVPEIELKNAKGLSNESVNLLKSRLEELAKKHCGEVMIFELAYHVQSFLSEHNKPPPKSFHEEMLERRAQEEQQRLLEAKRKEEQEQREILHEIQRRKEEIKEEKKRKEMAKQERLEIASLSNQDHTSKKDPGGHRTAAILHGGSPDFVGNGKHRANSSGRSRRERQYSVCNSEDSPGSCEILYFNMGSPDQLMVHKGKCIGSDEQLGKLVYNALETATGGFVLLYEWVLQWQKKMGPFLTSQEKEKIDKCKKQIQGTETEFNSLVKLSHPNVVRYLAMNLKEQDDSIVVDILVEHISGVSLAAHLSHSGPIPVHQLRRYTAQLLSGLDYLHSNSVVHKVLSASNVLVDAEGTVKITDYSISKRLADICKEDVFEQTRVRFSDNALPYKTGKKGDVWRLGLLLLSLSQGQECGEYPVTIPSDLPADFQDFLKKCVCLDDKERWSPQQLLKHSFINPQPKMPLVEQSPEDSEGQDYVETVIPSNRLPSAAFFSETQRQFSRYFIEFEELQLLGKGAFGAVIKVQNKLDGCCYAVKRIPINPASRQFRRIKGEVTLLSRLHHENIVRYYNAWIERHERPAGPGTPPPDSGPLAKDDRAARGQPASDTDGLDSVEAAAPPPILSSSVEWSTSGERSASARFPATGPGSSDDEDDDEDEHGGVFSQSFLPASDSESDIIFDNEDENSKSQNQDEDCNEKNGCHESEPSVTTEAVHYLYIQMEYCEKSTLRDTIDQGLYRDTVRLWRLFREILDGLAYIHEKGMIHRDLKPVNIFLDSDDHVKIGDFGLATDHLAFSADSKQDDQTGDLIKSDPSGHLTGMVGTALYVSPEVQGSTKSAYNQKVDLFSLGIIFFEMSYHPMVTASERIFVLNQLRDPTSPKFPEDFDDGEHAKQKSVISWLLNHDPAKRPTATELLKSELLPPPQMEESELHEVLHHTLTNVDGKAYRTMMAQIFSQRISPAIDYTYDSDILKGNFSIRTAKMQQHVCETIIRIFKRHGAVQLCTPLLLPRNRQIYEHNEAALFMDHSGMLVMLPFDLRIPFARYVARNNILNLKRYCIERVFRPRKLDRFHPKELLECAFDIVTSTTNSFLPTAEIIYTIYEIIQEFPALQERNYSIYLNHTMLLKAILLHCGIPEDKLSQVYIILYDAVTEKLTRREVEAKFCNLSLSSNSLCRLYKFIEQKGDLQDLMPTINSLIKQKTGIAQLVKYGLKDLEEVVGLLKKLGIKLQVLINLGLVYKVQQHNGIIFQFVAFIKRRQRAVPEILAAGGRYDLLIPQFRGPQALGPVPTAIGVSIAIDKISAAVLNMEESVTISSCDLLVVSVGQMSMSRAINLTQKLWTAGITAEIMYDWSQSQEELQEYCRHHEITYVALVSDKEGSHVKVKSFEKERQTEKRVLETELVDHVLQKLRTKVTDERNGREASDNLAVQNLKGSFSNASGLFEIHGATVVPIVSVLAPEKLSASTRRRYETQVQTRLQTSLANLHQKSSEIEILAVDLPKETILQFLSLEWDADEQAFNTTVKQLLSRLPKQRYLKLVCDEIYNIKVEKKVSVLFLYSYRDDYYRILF
# Sequence of PKD2 (Q9BZL6 whole entry): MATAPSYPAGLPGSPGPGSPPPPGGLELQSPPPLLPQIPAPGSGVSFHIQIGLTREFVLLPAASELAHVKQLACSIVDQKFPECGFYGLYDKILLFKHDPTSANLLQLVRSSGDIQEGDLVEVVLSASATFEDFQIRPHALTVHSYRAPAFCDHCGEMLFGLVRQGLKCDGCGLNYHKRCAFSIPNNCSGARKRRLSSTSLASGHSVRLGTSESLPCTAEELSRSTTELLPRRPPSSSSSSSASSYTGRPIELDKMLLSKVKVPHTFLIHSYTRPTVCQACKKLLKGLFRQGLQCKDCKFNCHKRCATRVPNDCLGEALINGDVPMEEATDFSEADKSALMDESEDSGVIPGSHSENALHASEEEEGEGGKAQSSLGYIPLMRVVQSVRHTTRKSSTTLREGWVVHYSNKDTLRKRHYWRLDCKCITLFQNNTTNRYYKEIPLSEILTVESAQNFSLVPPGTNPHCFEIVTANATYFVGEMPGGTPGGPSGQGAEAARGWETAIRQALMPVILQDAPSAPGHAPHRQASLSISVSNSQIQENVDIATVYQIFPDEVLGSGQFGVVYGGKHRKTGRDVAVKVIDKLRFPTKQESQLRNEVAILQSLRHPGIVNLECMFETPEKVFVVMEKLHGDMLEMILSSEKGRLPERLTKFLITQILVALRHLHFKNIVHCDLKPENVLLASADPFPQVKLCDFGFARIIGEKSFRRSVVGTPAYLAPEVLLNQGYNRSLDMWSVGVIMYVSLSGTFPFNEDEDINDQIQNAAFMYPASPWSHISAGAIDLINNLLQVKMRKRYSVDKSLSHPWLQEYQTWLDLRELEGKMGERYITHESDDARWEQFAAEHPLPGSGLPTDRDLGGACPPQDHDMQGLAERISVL
# Sequence of NEK7 (Q8TDX7 whole entry): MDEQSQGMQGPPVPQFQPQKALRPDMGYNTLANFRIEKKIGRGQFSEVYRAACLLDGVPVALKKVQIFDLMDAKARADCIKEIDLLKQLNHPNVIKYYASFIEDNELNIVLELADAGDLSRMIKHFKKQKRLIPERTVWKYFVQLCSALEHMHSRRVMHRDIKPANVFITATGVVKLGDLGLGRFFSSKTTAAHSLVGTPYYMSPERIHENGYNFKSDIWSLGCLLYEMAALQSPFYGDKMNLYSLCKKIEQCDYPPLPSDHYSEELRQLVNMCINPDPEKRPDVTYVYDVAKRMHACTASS
smiles,measurement,setting,value
"Nc1ncc(-c2cccc([N+](=O)[O-])c2F)cc1-c1ccc2c(c1)CCNC2=O [Compound I-9, 6-(2-amino-5-(2-fluoro-3-nitrophenyl)pyridin-3-yl)-3,4-dihydroisoquinolin-1(2H)-one]",inhibition at 10 µM,CDK7; read-out: % inhibition (range),75 to 90%
same,inhibition at 10 µM,CDK7; read-out: inhibition (10 μM),78.2%
same,inhibition at 10 µM,IKKa; read-out: % inhibition (range),0%
same,inhibition at 10 µM,IKKa; read-out: inhibition (10 μM),-18.4%
same,inhibition at 10 µM,LYN; read-out: % inhibition (range),0%
same,inhibition at 10 µM,LYN; read-out: inhibition (10 μM),-12.4%
same,inhibition at 10 µM,MLK3; read-out: % inhibition (range),50 to 75%
same,inhibition at 10 µM,MLK3; read-out: inhibition (10 μM),62.9%
same,% inhibition (range),"KSR1, KSR2; 10 μM",0.0%
same,inhibition (10 μM),"KSR1, KSR2",−51.3%
same,inhibition at 10 µM,PKR; read-out: % inhibition (range),0%
same,inhibition at 10 µM,PKR; read-out: inhibition (10 μM),-36.7%
same,inhibition at 10 µM,MLKL; read-out: % inhibition (range),50 to 75%
same,inhibition at 10 µM,MLKL; read-out: inhibition (10 μM),66.9%
same,inhibition at 10 µM,PKD2; read-out: % inhibition (range),35 to 50%
same,inhibition at 10 µM,PKD2; read-out: inhibition (10 μM),46.2%
same,inhibition at 10 µM,NEK7; read-out: % inhibition (range),0%
same,inhibition at 10 µM,NEK7; read-out: inhibition (10 μM),-39.5%
same,% inhibition (range),"ABL, ARG; 10 μM",75-90%
same,inhibition (10 μM),"ABL, ARG",75.7%
same,% inhibition (range),"MAP2K1, MAP2K2",0.0%
same,inhibition at 10 µM,SLK; read-out: % inhibition (range),> 90%
same,inhibition at 10 µM,SLK; read-out: inhibition (10 μM),95.3%
same,inhibition at 10 µM,MAP3K2; read-out: % inhibition (range),0%
same,inhibition at 10 µM,MAP3K2; read-out: inhibition (10 μM),0.3%
same,% inhibition (range),"PI4KA, PI4KAP2; 10 μM",0.0%
same,inhibition (10 μM),"PI4KA, PI4KAP2",−5.5%
same,inhibition at 10 µM,RSK1 domain2; read-out: % inhibition (range),0%
same,inhibition at 10 µM,RSK1 domain2; read-out: inhibition (10 μM),1%
same,inhibition at 10 µM,AurB; read-out: % inhibition (range),50 to 75%
same,inhibition at 10 µM,AurB; read-out: inhibition (10 μM),53.4%
same,inhibition at 10 µM,p70S6Kb; read-out: % inhibition (range),0%
same,inhibition at 10 µM,p70S6Kb; read-out: inhibition (10 μM),-84.5%
same,inhibition (10 μM),"CDK11, CDK8",35.5%
same,inhibition at 10 µM,MAP2K1; read-out: % inhibition (range),0%
same,inhibition at 10 µM,MAP2K1; read-out: inhibition (10 μM),-55.8%
same,inhibition at 10 µM,AKT1; read-out: % inhibition (range),0%
same,inhibition at 10 µM,AKT1; read-out: inhibition (10 μM),32.8%
same,inhibition at 10 µM,PKCi; read-out: % inhibition (range),0%
same,inhibition at 10 µM,PKCi; read-out: inhibition (10 μM),18.5%
same,inhibition at 10 µM,MAST3; read-out: % inhibition (range),0%
same,inhibition at 10 µM,MAST3; read-out: inhibition (10 μM),31.2%
same,inhibition at 10 µM,NuaK2; read-out: % inhibition (range),50 to 75%
same,inhibition at 10 µM,NuaK2; read-out: inhibition (10 μM),58.7%
same,inhibition at 10 µM,p38a,75 to 90%
same,inhibition at 10 µM,BRAF; read-out: % inhibition (range),0%
same,inhibition at 10 µM,BRAF; read-out: inhibition (10 μM),3.3%
same,inhibition at 10 µM,IRAK4; read-out: % inhibition (range),0%
same,inhibition at 10 µM,IRAK4; read-out: inhibition (10 μM),-14.1%
same,inhibition at 10 µM,MSK2 domain1; read-out: % inhibition (range),0%
same,inhibition at 10 µM,MSK2 domain1; read-out: inhibition (10 μM),-36.5%
same,inhibition at 10 µM,CK1g3; read-out: % inhibition (range),> 90%
same,inhibition at 10 µM,CK1g3; read-out: inhibition (10 μM),93%
same,inhibition at 10 µM,MAP3K1; read-out: % inhibition (range),> 90%
same,inhibition at 10 µM,MAP3K1; read-out: inhibition (10 μM),95.6%
same,inhibition at 10 µM,STLK6; read-out: % inhibition (range),0%
same,inhibition at 10 µM,STLK6; read-out: inhibition (10 μM),-47.7%
same,% inhibition (range),"AMPKa1, AMPKa2; 10 μM",50-75%
same,inhibition (10 μM),"AMPKa1, AMPKa2",52.0%
same,inhibition at 10 µM,MST2; read-out: % inhibition (range),75 to 90%
same,inhibition at 10 µM,MST2; read-out: inhibition (10 μM),88.9%
same,inhibition at 10 µM,PAN3; read-out: % inhibition (range),0%
same,inhibition at 10 µM,PAN3; read-out: inhibition (10 μM),-7.1%
same,inhibition at 10 µM,GCN2 domain2; read-out: % inhibition (range),0%
same,inhibition at 10 µM,GCN2 domain2; read-out: inhibition (10 μM),15.5%
